The values below come from patent publication US12256739B2, “Herbicidal mixtures comprising L-glufosinate or its salt and at least one protoporphyrinogen-IX oxidase inhibitor” (BASF SE, priority 2017, dated 2025).

What all share (experiment): Post emergence treatment, pot test, herbicidal activity
What all share (type): in vivo

In test [1] the test system is CYPIR (Cyperus iria). The following applies: scale from 0 to 100. From the text:
(§1) Synergism can be described as an interaction where the combined effect of two or more compounds is greater than the sum of the individual effects of each of the compounds. The pres-ence of a synergistic effect in terms of percent control, between two mixing partners (X and Y) can be calculated using the Colby equation (Colby, S. R., 1967, Calculating Synergistic and Antagonistic Responses in Herbicide Combinations, Weeds, 15, 21-22):
(§2) When the observed combined control effect is greater than the expected (calculated) combined control effect (E), then the combined effect is synergistic.
(§3) However, the weed control afforded by the compounds, mixtures or compositions is not limited to these species. The analysis of synergism or antagonism between the mixtures or compositions was determined using Colby's equation.
(§4) The culture containers used were plastic flowerpots containing loamy sand with approximately 3.0% of humus as the substrate. The seeds of the test plants were sown separately for each species and/or resistant biotype. For the pre-emergence treatment, the active ingredients, which had been suspended or emulsified in water, were applied directly after sowing by means of finely distributing nozzles. The containers were irrigated gently to promote germination and growth and subsequently covered with transparent plastic hoods until the plants had rooted. This cover caused uniform germination of the test plants, unless this had been impaired by the active ingredients. For the post-emergence treatment, the test plants were first grown to a height of 3 to 15 cm, depending on the plant habit, and only then treated with the active ingredients which had been suspended or emulsified in water. For this purpose, the test plants were either sown directly and grown in the same containers, or they were first grown separately as seedlings and transplanted into the test containers a few days prior to treatment. Depending on the species, the plants were kept at 10-25° C. or 20-35° C., respectively. The test period extended to 20 days after treatment. During this time, the plants were tended, and their response to the individual treatments was evaluated. The evaluation was carried out by using a scale from 0 to 100. 100 means no emergence of the plants or complete destruction of at least the above-ground parts, and 0 means no damage, or normal course of growth. Data shown are the mean of two replications.
(§5) • L-Glufosinate: 5% EC formulation • Saflufenacil: 342 g/l SC formulation • Compound II-16: 5% EC formulation (Compound II-16: ethyl[3-[2-chloro-4-fluoro-5-(1-methyl-6-trifluoromethyl-2,4-dioxo-1,2,3,4-tetrahydropyrimidin-3-yl)phenoxy]-2-pyridyloxy]acetate) • Trifludimoxazin: 500 g/l SC formulation • Sulfentrazone: 480 g/l SC formulation

Test [2] has as its system ERICA (Erigeron Canadensis, Conyza canadensis). The settings on record: scale from 0 to 100.
Text: as §1, §2, §3, §4, §5

In test [3] the test system is ECHCG (Echinochloa crus-galli).
Text: as §1, §2, §3, §4, §5

As for `CCOC(=O)COc1ncccc1Oc1cc(-n2c(=O)cc(C(F)(F)F)n(C)c2=O)c(F)cc1Cl` [Compound II-16, ethyl[3-[2-chloro-4-fluoro-5-(1-methyl-6-trifluoromethyl-2,4-dioxo-1,2,3,4-tetrahydropyrimidin-3-yl)phenoxy]-2-pyridyloxy]acetate], in test [1] (Compound II-16 alone, 0.25 g ai/ha), the “Herbicidal activity against CYPIR, Found” value was found to be 0. Regarding `CP(=O)(O)CC[C@H](N)C(=O)O` [L-Glufosinate, (2S)-2-amino-4-[hydroxy(methyl)phosphinoyl]butyric acid], the “Herbicidal activity against CYPIR, Found” value in test [1] (L-Glufosinate alone, 200 g ai/ha) is 0. The “Herbicidal activity against ERICA, Found” value in test [2] (L-Glufosinate alone, 75 g ai/ha) came out at 90. Also, the “Herbicidal activity against ECHCG, Found” value in test [3] (L-Glufosinate alone, 200 g ai/ha, scale from 0 to 100) came to 0; in test [3] (L-Glufosinate alone, 400 g ai/ha, scale from 0 to 100, mean of two replications), 65. As for `CC(C)N(C)S(=O)(=O)NC(=O)c1cc(-n2c(=O)cc(C(F)(F)F)n(C)c2=O)c(F)cc1Cl` [Saflufenacil, saflufenacil], in test [3] (Saflufenacil alone, 0.5 g ai/ha, scale from 0 to 100), the “Herbicidal activity against ECHCG, Found” value was found to be 0. Take `Cc1nn(-c2cc(NS(C)(=O)=O)c(Cl)cc2Cl)c(=O)n1C(F)F` [Sulfentrazone, sulfentrazone]: the “Herbicidal activity against ERICA, Found” value turned out to be 0 in test [2] (Sulfentrazone alone, 1.25 g ai/ha) and 0 in test [2] (Sulfentrazone alone, 2.5 g ai/ha).

For the compound `C#CCN1C(=O)C(F)(F)Oc2cc(F)c(-n3c(=O)n(C)c(=S)n(C)c3=O)cc21` [Trifludimoxazin, trifludimoxazin], the “Herbicidal activity against ECHCG, Found” value in test [3] (Trifludimoxazin alone, 0.25 g ai/ha, scale from 0 to 100) worked out at 10.
